Data published in PubChem BioAssay (NCI).
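Dose response: 5 concentrations. Exposure: 48 h. Format: 96-well plates. Endpoint: linear interpolation; highest concentration if not reached. GI50 is the concentration that inhibits growth by half. TGI: concentration producing complete growth inhibition.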

Tests used:
Assay in all cases: NCI tumour cell line growth inhibition, 48 h
[1] = tested on: A549 NSCLC
[2] = tested on: HOP-62 NSCLC
[3] = tested on: MALME-3M melanoma
[4] = tested on: MDA-MB-435
[5] = tested on: PC-3 prostate
[6] = tested on: SF-539 CNS
[7] = tested on: SK-MEL-5 melanoma
[8] = tested on: SK-OV-3 ovarian
[9] = tested on: SW-620 colon
[10] = tested on: UO-31 renal

Row | SMILES | GI50 [1] | TGI [1] | GI50 [2] | TGI [2] | GI50 [3] | TGI [3] | GI50 [4] | TGI [4] | GI50 [5] | TGI [5] | GI50 [6] | TGI [6] | GI50 [7] | TGI [7] | GI50 [8] | TGI [8] | GI50 [9] | TGI [9] | GI50 [10] | TGI [10]
1 | C#Cc1ccc(-n2c(/C=C/c3ccc(O)cc3)nc3ncccc3c2=O)cc1 | 4.74 µM | > 100 µM | 5.66 µM | 55.7 µM | 5.13 µM | > 100 µM | 1.6 µM | 4.04 µM | 3.87 µM | 47.9 µM | 2.12 µM | 6.1 µM | 2.24 µM | 7.45 µM | 3.38 µM | 29.1 µM | 3.55 µM | > 100 µM | 3.79 µM | 33.7 µM
2 | Cc1cc(Cl)nc(N(CCNc2ccnc3cc(Cl)ccc23)Cc2ccco2)n1 | 3.1 µM | 13.1 µM | 2.04 µM | 4.79 µM | 1.96 µM | 3.57 µM | 1.76 µM | 3.4 µM | 2.03 µM | 5.49 µM | 1.87 µM | 3.48 µM | 1.67 µM | 3.06 µM | 2.56 µM | 7.44 µM | 1.85 µM | 4.45 µM | 1.42 µM | 2.93 µM
3 | S=C1SCN(Cc2ccccc2)CN1Cc1ccco1 | 23.3 µM | > 100 µM | 5.33 µM | 26.8 µM | 8.44 µM | 23.5 µM | 1.67 µM | 10.4 µM | 5.75 µM | 61.6 µM | 2.24 µM | 6.68 µM | 11.7 µM | 26.9 µM | 12.9 µM | 52.7 µM | 4.52 µM | 18.1 µM | 4.56 µM | 18.7 µM
4 | CCCCCC(=O)O[C@]1(C(C)=O)CCC2C3CCC4=CC(=O)CC[C@]4(C)C3CC[C@@]21C (stereo not given in full) | 2.78 µM | 15.9 µM | 3.33 µM | 10.9 µM | 2.18 µM | 6.05 µM | 3.25 µM | 13.1 µM | 1.64 µM | 8.52 µM | 2.94 µM | 8.31 µM | 1.43 µM | 2.77 µM | 3.25 µM | 13.3 µM | 2.86 µM | 15.1 µM | 1.93 µM | 10.3 µM
5 | Nc1nccc(-c2c(-c3ccc(F)cc3)nn3cc(C(F)(F)F)ccc23)n1 | > 25 µM | > 25 µM | > 21.9 µM | > 25 µM | > 25 µM | > 25 µM | > 25 µM | > 25 µM | > 25 µM | > 25 µM | > 25 µM | > 25 µM | > 25 µM | > 25 µM | > 25 µM | > 25 µM | > 25 µM | > 25 µM | > 25 µM | > 25 µM
6 | COCCN(Cc1ccc(F)cc1)c1ccc(CO)c(Cl)c1 | 10.4 µM | > 79.5 µM | 13.5 µM | > 100 µM | > 57.1 µM | > 100 µM | 55.5 µM | > 100 µM | 29.4 µM | > 100 µM | > 71.3 µM | > 100 µM | 12.2 µM | 26.2 µM | 38.6 µM | > 100 µM | 7.29 µM | > 100 µM | 15.5 µM | > 100 µM
7 | C(=Nc1nc(SCc2ccccc2)nc2[nH]ncc12)c1cccs1 | 60 µM | > 100 µM | > 100 µM | > 100 µM | 42.9 µM | > 100 µM | 41.6 µM | > 100 µM | 32.6 µM | > 100 µM | 24.8 µM | > 100 µM | 2.77 µM | 19.8 µM | > 100 µM | > 100 µM | 47.2 µM | > 100 µM | 73.8 µM | > 100 µM
8 | COc1ccc(Nc2cnc3cc(N)cc(N)c3n2)cc1 | 26.8 µM | > 100 µM | 24.4 µM | 51.9 µM | 15.2 µM | 39.4 µM | 16.7 µM | 33.8 µM | 14.7 µM | 27.9 µM | 17.3 µM | 36.6 µM | 16 µM | 29.8 µM | 28.2 µM | 80.9 µM | 21.8 µM | 52.8 µM | 25.7 µM | 98.5 µM
9 | [O]=[V]([OH])([OH])[OH] | > 100 µM | > 100 µM | > 100 µM | > 100 µM | > 100 µM | > 100 µM | 79.2 µM | > 100 µM | > 100 µM | > 100 µM | > 100 µM | > 100 µM | > 100 µM | > 100 µM | > 100 µM | > 100 µM | > 100 µM | > 100 µM | > 100 µM | > 100 µM
10 | ClCCOCCn1cnc2c(Cl)nc(Cl)nc21 | 21.6 µM | 61.9 µM | 15.7 µM | 30.5 µM | 13.1 µM | 28.2 µM | 10.9 µM | 24.1 µM | 14 µM | 31.5 µM | 12.1 µM | 25.8 µM | 12.5 µM | 25.5 µM | 16.2 µM | 29.8 µM | 6.36 µM | 20.3 µM | 13.3 µM | 26.7 µM
